Test results taken from patent US20230293517A1, “ANTAGONIST COMPOUNDS” (AdoRx Therapeutics Limited, priority 2020, published 2023).
Like-named read-outs stand apart in the source and are kept apart here.

Legend:
[1] = target: human Adenosine A2b receptor (Homo sapiens (Human), UniProt P29275); assay: Adenosine receptor TR-FRET binding assay (A2b)
In short: (§1)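 Ki values come from Cheng–Prusoff conversion of IC50s for displacement of fluorescent antagonist CA200645 from terbium-labelled human adenosine receptors in CHO membranes. Tracer was 30 nM at A2b and 100 nM at the other three subtypes; incubation lasted 2 h at room temperature.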

[2] = tested on: CD8+T cells in human whole blood; assay: Measurement of pCREB in CD8+T cells in human whole blood; format: cell-based; conditions: 3 μM NECA, rolipram
Method: Biological Example—Measurement of pCREB in CD8+T Cells in Human Whole Blood
Heparinised human whole blood was pre-incubated at 37° C. with serial dilutions of A2a antagonists for 20 min. and the phosphodiesterase inhibitor rolipram to amplify the pCREB response. The adenosine receptor agonist NECA is then added at a final concentration of 3 μM and following a 60 min incubation the blood is fixed and red blood cells lysed. White blood cells are isolated, permeabilized and stained with directly conjugated fluorescent antibodies to phospho-CREB (Alexa Fluor 488) and CD8 (Alexa Fluor 647) and the level of phospho-CREB in CD8+T cells is measured by FACS using a BD Accuri C6 Flow Cytometer.

[3] = target: human Adenosine A2a receptor (Homo sapiens (Human), UniProt P29274); assay: Adenosine receptor TR-FRET binding assay (A2a); conditions: inhibition of binding of 100 nM CA200645, CHO cell membranes
Chain of human Adenosine A2a receptor (P29274 whole entry): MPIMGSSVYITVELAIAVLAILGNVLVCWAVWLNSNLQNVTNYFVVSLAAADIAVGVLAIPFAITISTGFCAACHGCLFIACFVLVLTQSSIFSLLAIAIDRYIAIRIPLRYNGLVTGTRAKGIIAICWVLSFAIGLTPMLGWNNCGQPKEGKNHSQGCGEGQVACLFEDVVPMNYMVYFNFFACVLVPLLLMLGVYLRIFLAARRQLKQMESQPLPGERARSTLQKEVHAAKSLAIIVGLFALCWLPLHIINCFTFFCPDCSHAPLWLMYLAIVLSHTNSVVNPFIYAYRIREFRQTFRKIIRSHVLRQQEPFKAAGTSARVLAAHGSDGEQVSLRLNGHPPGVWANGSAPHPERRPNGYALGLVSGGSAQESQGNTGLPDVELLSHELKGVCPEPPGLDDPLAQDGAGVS
In short: as §1

[4] = target: human Adenosine A1 receptor (Homo sapiens (Human), UniProt P30542); assay: Adenosine receptor TR-FRET binding assay (A1); conditions: inhibition of binding of 100 nM CA200645, CHO cell membranes
Chain of human Adenosine A1 receptor (P30542 whole entry): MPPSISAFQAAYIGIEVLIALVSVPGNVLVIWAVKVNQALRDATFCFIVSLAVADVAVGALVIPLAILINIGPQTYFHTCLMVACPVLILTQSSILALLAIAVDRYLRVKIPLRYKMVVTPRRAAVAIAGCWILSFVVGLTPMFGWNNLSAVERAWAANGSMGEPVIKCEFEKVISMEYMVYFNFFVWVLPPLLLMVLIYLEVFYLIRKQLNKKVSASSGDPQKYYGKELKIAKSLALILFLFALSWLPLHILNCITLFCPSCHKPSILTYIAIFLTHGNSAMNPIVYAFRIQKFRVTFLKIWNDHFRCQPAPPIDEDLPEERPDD
In short: as §1

human PBMCs = assay: CD3/CD28 stimulated IL-2 release NECA reversal assay in human PBMCs; format: cell-based; conditions: PBMC, 1 uM NECA, 24 hours, IL-2 in culture supernatant
Method: Biological Example—CD3/CD28 Stimulated IL-2 Release NECA Reversal Assay in Human PBMCs
Blood is drawn from healthy volunteers using sodium citrate as the anticoagulant (0.3% final concentration). After centrifugation of the blood over Histopaque-1077, PBMCs are collected from the Histopaque/plasma interface and washed twice in PBS (300 g for 10 mins at room temp). Cells are plated at 50,000 cells/well in 150 μl RPMI/10% FCS in 96-well cell culture plates that have been precoated with 1 ug/ml CD3 antibody. 50 μl diluted compound mix is added to the cells, to obtain final concentrations of 1 ug/ml CD28 antibody, 1 uM NECA and 0.003-10 μM adenosine receptor antagonist. Assay plates are incubated for 24 hours at 37° C. in a humidified incubator. Culture supernatant is tested for IL-2 levels using the human IL-2 Tissue Culture Kit (Meso Scale Discovery). Data for dose-response curves is calculated as % inhibition with 100% inhibition defined from no agonist control wells (+CD3/28-NECA)

[5] = target: human Adenosine A3 receptor (Homo sapiens (Human), UniProt P0DMS8); assay: Adenosine receptor TR-FRET binding assay (A3); conditions: inhibition of binding of 100 nM CA200645, CHO cell membranes
Chain of human Adenosine A3 receptor (P0DMS8 whole entry): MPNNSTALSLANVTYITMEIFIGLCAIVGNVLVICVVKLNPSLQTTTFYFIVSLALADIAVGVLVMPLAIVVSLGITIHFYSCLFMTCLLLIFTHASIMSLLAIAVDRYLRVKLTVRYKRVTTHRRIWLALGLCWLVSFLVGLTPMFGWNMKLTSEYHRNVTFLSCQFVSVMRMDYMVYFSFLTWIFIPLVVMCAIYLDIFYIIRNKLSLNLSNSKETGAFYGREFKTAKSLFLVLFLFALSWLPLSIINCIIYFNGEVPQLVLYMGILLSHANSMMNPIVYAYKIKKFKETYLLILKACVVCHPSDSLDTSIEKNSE
In short: as §1

[6] = TR-FRET, inhibition of binding of 30 nM CA200645, CHO cell membranes

Chain of human Adenosine A2b receptor (P29275 whole entry): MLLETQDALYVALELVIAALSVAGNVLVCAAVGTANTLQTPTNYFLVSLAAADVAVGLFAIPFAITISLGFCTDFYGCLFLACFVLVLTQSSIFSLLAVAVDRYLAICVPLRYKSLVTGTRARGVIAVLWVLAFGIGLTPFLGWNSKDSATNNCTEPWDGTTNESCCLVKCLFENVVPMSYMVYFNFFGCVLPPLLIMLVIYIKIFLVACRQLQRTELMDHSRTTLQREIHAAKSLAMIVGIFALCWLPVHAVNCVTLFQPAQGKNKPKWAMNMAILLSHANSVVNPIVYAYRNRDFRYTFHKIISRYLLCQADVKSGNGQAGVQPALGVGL

SMILES	Ki [1, 6]	IC50 [2]	Ki [3]	Ki [4]	IC50 (human PBMCs)	Ki [1]	Ki [5]
Cc1cc(-c2sc(NC(=O)N3CC4(COC4)C3)nc2-c2cccc(C#N)c2)cc([C@@H](C)O)n1 (single isomer, unassigned) [Example 12.3b, N-[4-(3-Cyanophenyl)-5-[2-[(1R)-1-hydroxyethyl]-6-methyl-4-pyridyl]thiazol-2-yl]-2-oxa-6-azaspiro[3.3]heptane-6-carboxamide or N-[4-(3-cyanophenyl)-5-[2-[(1S)-1-hydroxyethyl]-6-methyl-4-pyridyl]thiazol-2-yl]-2-oxa-6-azaspiro[3.3]heptane-6-carboxamide]	1.2 nM	10 nM	0.42 nM	19 nM			
Cc1cc(-c2sc(NC(=O)N3CCN4C(=O)OCC4C3)nc2-c2cccc(C#N)c2)cc(C)n1 (centres unmarked) [Example 6.13, N-[4-(3-Cyanophenyl)-5-(2,6-dimethyl-4-pyridyl)thiazol-2-yl]-3-oxo-5,6,8,8a-tetrahydro-1H-oxazolo[3,4-a]pyrazine-7-carboxamide]	3.4 nM	140 nM	0.4 nM	23 nM	3.7 nM		
Cc1cc(-c2sc(NC(=O)N3CCOC(C(C)(C)O)C3)nc2-c2cccc(C#N)c2)cc(C)n1 (centres unmarked) [Example 6.47, N-[4-(3-Cyanophenyl)-5-(2,6-dimethyl-4-pyridyl)thiazol-2-yl]-2-(1-hydroxy-1-methyl-ethyl)morpholine-4-carboxamide]		80 nM	0.37 nM	38 nM	1.9 nM	2.5 nM	
Cc1cc(-c2sc(NC(=O)N3CCC4(CC3)CNC(=O)N4C)nc2-c2cccc(C#N)c2)cc(C)n1 [Example 6.51, N-[4-(3-Cyanophenyl)-5-(2,6-dimethyl-4-pyridyl)thiazol-2-yl]-1-methyl-2-oxo-1,3,8-triazaspiro[4.5]decane-8-carboxamide]		320 nM			6.1 nM		
Cc1cc(-c2sc(NC(=O)N3CC4(CCOCC4)C3)nc2-c2cccc(C#N)c2)cc(C)n1 [Example 6.54, N-[4-(3-Cyanophenyl)-5-(2,6-dimethyl-4-pyridyl)thiazol-2-yl]-7-oxa-2-azaspiro[3.5]nonane-2-carboxamide]		140 nM			3.3 nM		
Cc1cc(-c2sc(NC(=O)N3CC4(CNC(=O)C4)C3)nc2-c2cccc(C#N)c2)cc(C)n1 [Example 6.55, N-[4-(3-Cyanophenyl)-5-(2,6-dimethyl-4-pyridyl)thiazol-2-yl]-6-oxo-2,7-diazaspiro[3.4]octane-2-carboxamide]		10 nM			2.2 nM		
Cc1cc(-c2sc(NC(=O)N3CC4(CNC(=O)N4)C3)nc2-c2cccc(C#N)c2)cc(C)n1 [Example 6.57, N-[4-(3-Cyanophenyl)-5-(2,6-dimethyl-4-pyridyl)thiazol-2-yl]-6-oxo-2,5,7-triazaspiro[3.4]octane-2-carboxamide]		60 nM			2.6 nM		
Cc1cc(-c2sc(NC(=O)N3CCC4(CCCC(=O)N4)CC3)nc2-c2cccc(C#N)c2)cc(C)n1 [Example 6.58, N-[4-(3-Cyanophenyl)-5-(2,6-dimethyl-4-pyridyl)thiazol-2-yl]-2-oxo-1,9-diazaspiro[5.5]undecane-9-carboxamide]		360 nM			8.5 nM		
Cc1cc(-c2sc(NC(=O)N3CCC(C)(C#N)CC3)nc2-c2cccc(C#N)c2)c(F)c(C)n1 [Example 6.66, 4-Cyano-N-[4-(3-cyanophenyl)-5-(3-fluoro-2,6-dimethyl-4-pyridyl)thiazol-2-yl]-4-methyl-piperidine-1-carboxamide]		300 nM			4.3 nM		
Cc1cc(-c2sc(NC(=O)N3CC(C)(O)C3)nc2-c2cccc(C#N)c2)c(F)c(C)n1 [Example 6.67, N-[4-(3-Cyanophenyl)-5-(3-fluoro-2,6-dimethyl-4-pyridyl)thiazol-2-yl]-3-hydroxy-3-methyl-azetidine-1-carboxamide]		250 nM			10.6 nM		
Cc1cc(-c2sc(NC(=O)N3CC[C@H]3CO)nc2-c2cccc(C#N)c2)cc(C)n1 [Example 6.73, (2S)-N-[4-(3-Cyanophenyl)-5-(2,6-dimethyl-4-pyridyl)thiazol-2-yl]-2-(hydroxymethyl)azetidine-1-carboxamide]		200 nM			13.5 nM		
Cc1cc(-c2sc(NC(=O)N3CCC(C)(O)CC3)nc2-c2cccc(C#N)c2)cc(C)n1 [Example 6.96, N-[4-(3-Cyanophenyl)-5-(2,6-dimethyl-4-pyridyl)thiazol-2-yl]-4-hydroxy-4-methyl-piperidine-1-carboxamide]	1.8 nM	30 nM	0.53 nM	10 nM			502 nM
Cc1cc(-c2sc(NC(=O)N3CCN[C@@H](C(F)(F)F)C3)nc2-c2cccc(C#N)c2)cc(C)n1 [Example 13.13, (3R)-N-[4-(3-Cyanophenyl)-5-(2,6-dimethyl-4-pyridyl)thiazol-2-yl]-3-(trifluoromethyl)piperazine-1-carboxamide]	8 nM	110 nM	0.48 nM	19 nM			871 nM
Cc1cc(-c2sc(NC(=O)N3CCN[C@H](C)C3)nc2-c2cccc(C#N)c2)cc(C(F)(F)F)n1 [Example 14, (3R)—N-[4-(3-Cyanophenyl)-5-[2-methyl-6-(trifluoromethyl)-4-pyridyl]thiazol-2-yl]-3-methyl-piperazine-1-carboxamide]	7.4 nM		2.71 nM	45 nM			47 nM
COc1cc(-c2sc(NC(=O)N3CCS(=N)(=O)CC3)nc2-c2cccc(C#N)c2)cc(C)n1 [Example 16, N-[4-(3-Cyanophenyl)-5-(2-methoxy-6-methyl-4-pyridyl)thiazol-2-yl]-1-imino-1-oxo-1,4-thiazinane-4-carboxamide]	2.4 nM		2.71 nM	55 nM			334 nM
Cc1cc(-c2sc(NC(=O)N3CC[S+]([O-])CC3)nc2-c2cccc(C#N)c2)cc(C(F)(F)F)n1 [Example 16.2]	1.4 nM		0.38 nM	16 nM			135 nM
COc1cc(-c2sc(NC(=O)N3CC[S+]([O-])CC3)nc2-c2cccc(C#N)c2)cc(C)n1 [Example 16.3]	6.2 nM		5.71 nM	82 nM			383 nM
Cc1cc(-c2sc(NC(=O)N3CC[S+]([O-])CC3)nc2-c2cccc(C#N)c2)cc(C#N)n1 [Example 16.5]	19.9 nM		11.9 nM	87 nM			325 nM
Cc1cc(-c2sc(NC(=O)N3CC4(COC4)C3)nc2-c2cccc(C#N)c2)cc(C(C)C)n1 [Example 16.8]	1.1 nM		0.13 nM	6 nM			537 nM
N#Cc1cccc(-c2nc(NC(=O)N3CC4(COC4)C3)sc2-c2cc(Cl)nc(Cl)c2)c1 [Example 16.10]	1.7 nM		0.57 nM	43 nM			254 nM
CC(=O)Nc1cc(-c2sc(NC(=O)N3CC4(COC4)C3)nc2-c2cccc(C#N)c2)cc(C)n1 [Example 19, N-[5-(2-Acetamido-6-methyl-4-pyridyl)-4-(3-cyanophenyl)thiazol-2-yl]-2-oxa-6-azaspiro[3.3]heptane-6-carboxamide]	7.9 nM	290 nM	1.86 nM	137 nM			
CC(=O)NCc1cc(-c2sc(NC(=O)N3CC4(COC4)C3)nc2-c2cccc(C#N)c2)cc(C)n1 [Example 20, N-[5-[2-(Acetamidomethyl)-6-methyl-4-pyridyl]-4-(3-cyanophenyl)thiazol-2-yl]-2-oxa-6-azaspiro[3.3]heptane-6-carboxamide]	39.1 nM		6.85 nM	133 nM			2540 nM
COC(C)c1cc(-c2sc(NC(=O)N3CC4(COC4)C3)nc2-c2cccc(C#N)c2)cc(C)n1 (centres unmarked) [Example 22, N-[4-(3-Cyanophenyl)-5-[2-(1-methoxyethyl)-6-methyl-4-pyridyl]thiazol-2-yl]-2-oxa-6-azaspiro[3.3]heptane-6-carboxamide]	3.2 nM		0.2 nM	7 nM			2060 nM
